Measured values taken from US9439857B2, “Foam containing benzoyl peroxide” (Foamix Pharmaceuticals Ltd., priority 2007, dated 2016).

Test system: skin hydration level
Experiment: Skin hydration, Corneometer CM 825
Assay type: in vivo, human
Conditions: BPO-047 variants, 8% glycerin, 2% sodium PCA
Procedure: Healthy subjects were applied with single dose of formulations as shown in Example 14. Skin hydration is measured using a Corneometer® CM 825 instrument. (Courage+Khazaka, Koln, Germany). The measuring principle of the Corneometer® CM 825 is based on capacitance measurement of dielectric medium. Any change in the dielectric constant due to skin surface hydration alters the capacitance of a measuring capacitor. It is capable of detecting even slight changes in the skin hydration level.
Skin hydration level is assessed at baseline (fifteen minutes after each subject washed the left and right forearms) with the Corneometer® CM 825. The formulations are applied in designated chambers under occlusion for 6 hours which are then removed and the skin cleaned. Hydration is then measured one hour later.
Study protocol: The study was performed in a temperature controlled room (20-24° C.). Subjects washed their arms with water (no soap) and dried their arms with dry paper towel. Formulations were applied using test chambers. The location of each chamber within the stripe was marked once applied (maximum of 3 stripes on each arm). Each stripe contained only one formulation. One stripe served as a control, non treated area. […] Skin hydration level was assessed at baseline T=0 (minimum 15 minutes following rinse), using the Corneometer® CM 825, and tested based on study design. […]

SMILES | hydration effect (Corneometer)
O=C1CCC(C(=O)[O-])N1.[Na+] (centres unmarked) [Sodium PCA, sodium salt of 2-pyrrolidone-5-carboxylic acid] | increases hydration but to a lesser extent
OCC(O)CO [glycerin] | main contributor to the hydration effect
